Reference: article PMC5148686 (European journal of medicinal chemistry, 2016)
Entries after “also recorded” stand apart in the source; their conditions may differ.

Legend:
[1] = target: human dopamine D2 receptor (Homo sapiens, UniProt P14416); assay: PDSP radioligand binding assay at dopamine D2 receptor; conditions: primary assay at 10 μM; not progressed to secondary assay
dopamine D1 receptor = dopamine D1 receptor (Macaca mulatta, UniProt O77680); assay: [35S]GTPγS binding stimulation in HEK293-rh D1 cells; type: cell-based, rhesus macaque; conditions: compared with dopamine as full agonist
dopamine D3 receptor [2] = target: T1, dopamine D3 receptor (Homo sapiens, UniProt P35462); assay: [35S]GTPγS binding in CHO-hD3 cells; type: cell-based; conditions: compared with dopamine as full agonist
dopamine D3 receptor [3] = target: T1, dopamine D3 receptor; assay: PDSP radioligand binding assay at dopamine D3 receptor; conditions: versus 22c

Sequence of human dopamine D2 receptor (P14416 whole entry): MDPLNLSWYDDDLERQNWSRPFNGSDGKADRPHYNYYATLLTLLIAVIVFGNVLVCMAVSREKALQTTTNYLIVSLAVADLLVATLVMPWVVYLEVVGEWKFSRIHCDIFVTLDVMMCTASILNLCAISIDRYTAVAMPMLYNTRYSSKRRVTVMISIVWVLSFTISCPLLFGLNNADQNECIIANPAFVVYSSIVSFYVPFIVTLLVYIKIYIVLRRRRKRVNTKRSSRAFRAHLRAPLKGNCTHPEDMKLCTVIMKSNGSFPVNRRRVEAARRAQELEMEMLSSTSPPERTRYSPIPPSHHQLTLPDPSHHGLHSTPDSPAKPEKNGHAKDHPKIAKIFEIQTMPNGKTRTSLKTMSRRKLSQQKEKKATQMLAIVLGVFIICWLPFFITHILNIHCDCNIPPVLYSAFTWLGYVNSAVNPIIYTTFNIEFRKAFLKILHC
T1 sequence (P35462 whole entry): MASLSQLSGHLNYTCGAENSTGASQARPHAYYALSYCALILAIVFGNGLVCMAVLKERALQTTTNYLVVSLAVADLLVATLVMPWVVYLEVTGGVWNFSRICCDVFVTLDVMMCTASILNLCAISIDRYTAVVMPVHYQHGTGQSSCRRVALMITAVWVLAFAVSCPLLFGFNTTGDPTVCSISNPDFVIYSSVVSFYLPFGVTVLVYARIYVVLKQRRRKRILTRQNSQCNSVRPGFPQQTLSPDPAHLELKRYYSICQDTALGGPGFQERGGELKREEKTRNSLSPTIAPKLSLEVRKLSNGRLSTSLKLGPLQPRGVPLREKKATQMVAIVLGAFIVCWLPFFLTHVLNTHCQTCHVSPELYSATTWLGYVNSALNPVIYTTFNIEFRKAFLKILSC
Sequence of dopamine D1 receptor (O77680 whole entry): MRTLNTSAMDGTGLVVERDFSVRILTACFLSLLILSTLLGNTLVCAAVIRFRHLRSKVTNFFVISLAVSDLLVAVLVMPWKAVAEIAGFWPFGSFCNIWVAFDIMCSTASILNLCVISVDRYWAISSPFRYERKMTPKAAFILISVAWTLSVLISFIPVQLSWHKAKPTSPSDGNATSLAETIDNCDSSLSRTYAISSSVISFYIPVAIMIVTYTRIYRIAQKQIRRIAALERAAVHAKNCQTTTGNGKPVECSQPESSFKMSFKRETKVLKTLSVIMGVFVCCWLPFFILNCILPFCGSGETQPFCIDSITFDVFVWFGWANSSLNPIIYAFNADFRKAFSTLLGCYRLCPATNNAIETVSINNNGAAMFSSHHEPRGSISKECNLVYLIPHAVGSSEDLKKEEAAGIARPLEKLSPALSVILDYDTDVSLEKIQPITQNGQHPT

Row | SMILES | D2 receptor affinity in the primary assay [1] | other results
1 | CCOc1c(O)cc(Br)c2c1CN1CCc3cc(OC)c(O)cc3[C@@H]1C2 [Compound 20a, (S)-12-bromo-9-ethoxy-3-methoxy-5,8,13,13a-tetrahydro-6H-isoquinolino[3,2-a]isoquinoline-2,10-diol] | did not show any appreciable D2 receptor affinity | 
2 | COCCOc1c(O)cc(Br)c2c1CN1CCc3cc(OC)c(O)cc3[C@@H]1C2 [Compound 20g, (S)-12-bromo-3-methoxy-9-(2-methoxyethoxy)-5,8,13,13a-tetrahydro-6H-isoquinolino[3,2-a]isoquinoline-2,10-diol] | did not show any appreciable D2 receptor affinity; also recorded: no activity | 
3 | CCOc1c(O)ccc2c1CN1CCc3cc(OC)c(O)cc3[C@@H]1C2 [Compound 22a, (S)-9-ethoxy-3-methoxy-5,8,13,13a-tetrahydro-6H-isoquinolino[3,2-a]isoquinoline-2,10-diol] | lacked any appreciable affinity | intrinsic activity at D1 receptor (stimulation of GTPγ-S binding) (dopamine D1 receptor): lacked intrinsic activity; intrinsic activity at D3 receptor (stimulation of GTPγ-S binding) (dopamine D3 receptor [2]): lacked intrinsic activity
4 | CCCCOc1c(O)ccc2c1CN1CCc3cc(OC)c(O)cc3[C@@H]1C2 [Compound 22c, (S)-9-butoxy-3-methoxy-5,8,13,13a-tetrahydro-6H-isoquinolino[3,2-a]isoquinoline-2,10-diol] | lacked any appreciable affinity | 
5 | CCCCCCOc1c(O)ccc2c1CN1CCc3cc(OC)c(O)cc3[C@@H]1C2 [Compound 22e, (S)-9-(hexyloxy)-3-methoxy-5,8,13,13a-tetrahydro-6H-isoquinolino[3,2-a]isoquinoline-2,10-diol] | lacked any appreciable affinity | 
6 | COCCOc1c(O)ccc2c1CN1CCc3cc(OC)c(O)cc3[C@@H]1C2 [Compound 22g, (S)-3-methoxy-9-(2-methoxyethoxy)-5,8,13,13a-tetrahydro-6H-isoquinolino[3,2-a]isoquinoline-2,10-diol] |  | fold higher D3 affinity than n-butyloxy analogue 22c (dopamine D3 receptor [3]): 4 fold
